Residues, ends and D or L forms follow the SMILES beside them. No end group written: not given here.
Assays:
Type in all cases: cell-based
Details in all cases: 24 h
[1] = test system: human breast malignant carcinoma cell line (MT-1)
Experimental: The cytotoxic effects of the peptides on different human tumour cells were measured using the MTT colorimetric assay (Mosmann, 1983). MIT (3-(4-5-dimethylthiazol-2-yl)-2,5-diphenyl tetrazolium bromide) is a soluble tetrazolium salt yielding a yellow solution when prepared in media or salt solutions lacking phenol red. Dissolved MIT is converted to an insoluble purple formazan by cleavage of the tetrazolium ring by dehydrogenase enzymes. This water insoluble formazan can be solubilized using isopropanol or other solvents and the dissolved material is measured spectrophotometrically. The absorbance was measured as a function of concentration of converted dye. […]
The tumour cell lines FemX, HT-29, MT-1 were maintained in RPMI-1640 medium supplemented with 10% heat inactivated FBS and 1% L-glutamine in a humidified atmosphere of 5% CO2 at 37° C. […] Cells to be used in the assay were grown to a minimum of 75% confluency, trypsinated and split to single cell suspension, counted and centrifuged at 1500 rpm for 10 min. […]
The cytotoxicity was measured using the MTT method (Mosmann, 1983), with minor modifications. […] The plate was placed on a shaker for 1 hour at room temperature and read spectrophotometrically at 590 nm in a microtiter plate reader (DTX880 Multimode Detector, Beckman Coulter). […]

[2] = test system: human colorectal adenocarcinoma cell line HT-29
[3] = test system: human embryonic lung fibroblast cell line MRC-5

| Compound | IC50 [1] [µM] | IC50 [2] [µM] | IC50 [3] [µM] |
| --- | --- | --- | --- |
| CC[C@H](C)[C@H](NC(=O)CNC(=O)[C@H](CO)NC(=O)[C@H](CCCCN)NC(=O)[C@@H](NC(=O)[C@H](C)NC(=O)[C@H](Cc1c[nH]cn1)NC(=O)[C@H](CO)NC(=O)[C@@H](NC(=O)[C@H](CCCCN)NC(=O)[C@H](Cc1c[nH]cn1)NC(=O)[C@H](Cc1ccccc1)NC(=O)[C@@H](NC(=O)[C@H](CCCCN)NC(=O)[C@H](CCCCN)NC(=O)[C@H](Cc1ccccc1)NC(=O)C(Cc1c[nH]c2ccc(Br)cc12)NC(=O)CN)[C@@H](C)O)C(C)C)C(C)C)C(=O)N[C@@H](Cc1c[nH]cn1)C(=O)N[C@@H](C)C(=O)NCC(=O)N[C@@H](CCC(N)=O)C(=O)N[C@@H](CCCNC(=N)N)C(=O)NCC(=O)N[C@@H](CS)C(=O)N[C@@H](CO)C(=O)N[C@@H](C)C(=O)N[C@@H](CC(C)C)C(=O)NCC(=O)N[C@@H](Cc1ccccc1)C(=O)O (stereo partly drawn) [P17 HC-Br] (HELM PEPTIDE1{G.[O=C(C(Cc1c[nH]c2ccc(Br)cc12)N[*:1])[*:2]].F.K.K.T.F.H.K.V.S.H.A.V.K.S.G.I.H.A.G.Q.R.G.C.S.A.L.G.F}$$$$V2.0) | 20 | – | – |
| GWFKKTFHKVSHAVKSGIHAGQRGCSALGF [P17 HC] | – | 52 | 53 |

From patent US20100093642A1, “NOVEL POLYPEPTIDES” (priority 2006, published 2010)
